Molecular target: full-length ATR (Homo sapiens (Human), UniProt Q13535)
Experiment: ATR Inhibition Assay (radioactive-phosphate incorporation)
Type: biochemical
Settings: read-out: ATR Ki
How it was run: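 Ki(app) was derived by non-linear regression of background-corrected initial rates of 33P incorporation into an 800 μM target peptide, read by phosphocellulose filter scintillation counting. Reaction conditions: 5 nM full-length ATR, 10 μM [γ-33P]ATP, pH 7.5 Tris buffer with MgCl2 and DTT, 25 °C, 10-min preincubation, 24 h run.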

Sequence of full-length ATR (Q13535 whole entry): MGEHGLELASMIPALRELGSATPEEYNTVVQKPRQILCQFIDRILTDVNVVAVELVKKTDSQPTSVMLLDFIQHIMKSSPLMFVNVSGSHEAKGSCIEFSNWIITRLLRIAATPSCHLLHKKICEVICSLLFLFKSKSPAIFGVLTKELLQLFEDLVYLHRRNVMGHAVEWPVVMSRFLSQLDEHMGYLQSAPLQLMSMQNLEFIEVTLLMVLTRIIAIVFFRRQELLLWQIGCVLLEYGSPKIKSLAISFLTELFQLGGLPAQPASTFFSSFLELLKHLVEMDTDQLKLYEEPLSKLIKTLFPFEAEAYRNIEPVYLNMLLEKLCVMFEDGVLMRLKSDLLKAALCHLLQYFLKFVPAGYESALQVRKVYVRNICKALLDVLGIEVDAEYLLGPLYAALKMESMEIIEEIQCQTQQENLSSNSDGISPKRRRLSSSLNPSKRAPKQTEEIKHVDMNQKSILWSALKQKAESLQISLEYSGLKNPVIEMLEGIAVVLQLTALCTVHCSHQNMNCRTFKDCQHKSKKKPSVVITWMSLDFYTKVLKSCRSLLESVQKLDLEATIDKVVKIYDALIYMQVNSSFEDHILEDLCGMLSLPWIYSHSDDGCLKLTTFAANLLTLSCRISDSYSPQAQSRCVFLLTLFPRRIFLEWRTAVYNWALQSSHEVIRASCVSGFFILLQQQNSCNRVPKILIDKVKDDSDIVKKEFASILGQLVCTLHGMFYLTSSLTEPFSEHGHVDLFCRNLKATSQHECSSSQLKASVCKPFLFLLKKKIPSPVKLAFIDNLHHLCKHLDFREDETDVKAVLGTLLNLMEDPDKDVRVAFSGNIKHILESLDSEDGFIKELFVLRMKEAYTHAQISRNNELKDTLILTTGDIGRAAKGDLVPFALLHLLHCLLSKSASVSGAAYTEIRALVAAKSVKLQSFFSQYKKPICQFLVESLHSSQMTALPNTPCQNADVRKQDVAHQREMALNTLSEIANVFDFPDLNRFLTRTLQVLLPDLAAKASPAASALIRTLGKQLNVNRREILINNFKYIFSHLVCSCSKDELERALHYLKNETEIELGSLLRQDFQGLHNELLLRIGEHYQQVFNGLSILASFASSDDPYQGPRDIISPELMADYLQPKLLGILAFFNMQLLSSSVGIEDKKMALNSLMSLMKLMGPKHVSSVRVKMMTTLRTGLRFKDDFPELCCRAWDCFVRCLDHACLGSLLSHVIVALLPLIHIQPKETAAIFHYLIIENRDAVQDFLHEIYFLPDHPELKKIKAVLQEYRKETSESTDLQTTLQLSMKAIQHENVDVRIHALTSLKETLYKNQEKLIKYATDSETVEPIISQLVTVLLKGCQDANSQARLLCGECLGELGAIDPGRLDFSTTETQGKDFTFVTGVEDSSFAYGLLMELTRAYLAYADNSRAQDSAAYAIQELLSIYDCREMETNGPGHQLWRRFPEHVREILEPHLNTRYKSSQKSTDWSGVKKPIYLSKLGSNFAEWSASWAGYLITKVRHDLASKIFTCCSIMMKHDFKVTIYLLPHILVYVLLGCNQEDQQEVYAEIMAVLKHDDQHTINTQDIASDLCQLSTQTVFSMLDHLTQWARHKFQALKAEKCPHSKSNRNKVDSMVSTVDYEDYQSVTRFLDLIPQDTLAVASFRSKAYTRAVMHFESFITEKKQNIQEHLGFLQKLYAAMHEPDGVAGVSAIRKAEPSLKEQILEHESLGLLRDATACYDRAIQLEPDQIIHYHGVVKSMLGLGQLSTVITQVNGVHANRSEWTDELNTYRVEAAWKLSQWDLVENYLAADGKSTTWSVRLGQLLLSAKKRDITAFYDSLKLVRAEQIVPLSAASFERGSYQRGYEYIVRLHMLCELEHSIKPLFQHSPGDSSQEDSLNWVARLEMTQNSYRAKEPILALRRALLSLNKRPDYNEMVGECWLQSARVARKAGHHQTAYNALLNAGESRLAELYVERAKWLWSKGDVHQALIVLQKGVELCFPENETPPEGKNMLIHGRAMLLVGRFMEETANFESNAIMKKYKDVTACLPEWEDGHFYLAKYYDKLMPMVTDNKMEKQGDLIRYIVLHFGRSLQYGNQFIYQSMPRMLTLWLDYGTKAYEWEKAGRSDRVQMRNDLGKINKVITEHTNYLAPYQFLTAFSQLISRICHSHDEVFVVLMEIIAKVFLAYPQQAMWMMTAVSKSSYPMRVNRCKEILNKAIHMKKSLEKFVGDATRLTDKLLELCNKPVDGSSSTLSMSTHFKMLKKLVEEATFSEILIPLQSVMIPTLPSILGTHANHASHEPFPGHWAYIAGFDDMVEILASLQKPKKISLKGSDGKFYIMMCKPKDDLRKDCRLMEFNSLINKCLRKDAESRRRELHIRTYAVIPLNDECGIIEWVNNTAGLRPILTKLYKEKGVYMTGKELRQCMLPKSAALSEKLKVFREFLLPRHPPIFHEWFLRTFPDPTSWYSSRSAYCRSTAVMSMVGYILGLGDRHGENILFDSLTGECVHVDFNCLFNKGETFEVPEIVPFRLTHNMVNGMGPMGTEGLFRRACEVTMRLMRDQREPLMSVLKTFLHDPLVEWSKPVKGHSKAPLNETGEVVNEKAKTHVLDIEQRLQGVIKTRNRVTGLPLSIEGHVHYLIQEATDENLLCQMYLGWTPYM

Ki	Molecule
10 to 100 nM	CCc1ccccc1-c1nnc(-c2nc(-c3ccc(C(=O)N(C)C)cc3)cnc2N)o1 [IA-155, 4-(5-amino-6-(5-(2-ethylphenyl)-1,3,4-oxadiazol-2-yl)pyrazin-2-yl)-N,N-dimethylbenzamide]
≤ 10 nM	CC(C)S(=O)(=O)c1ccc(-c2cnc(N)c(-c3nnc(-c4ccccc4O)o3)n2)cc1 [IA-235, 2-[5-[3-amino-6-(4-isopropylsulfonylphenyl)pyrazin-2-yl]-1,3,4-oxadiazol-2-yl]phenol]
10 to 100 nM	Nc1ncc(-c2cccnc2)nc1C(=O)Nc1ccc2[nH]ccc2c1 [Compound I-104, 3-amino-N-(1H-indol-5-yl)-6-(pyridin-3-yl)pyrazine-2-carboxamide]
10 to 100 nM	Nc1ncc(-c2ccc(C(=O)N3CCNCC3)c(F)c2)nc1-c1nnc(-c2ccccc2)o1 [IA-7]
10 to 100 nM	Cc1ccc2nc(-c3nc(-c4ccc(S(C)(=O)=O)cc4)cnc3N)[nH]c2c1 [Compound I-117, 3-(6-methyl-1H-benzo[d]imidazol-2-yl)-5-(4-(methylsulfonyl)phenyl) pyrazin-2-amine]
10 to 100 nM	CN(C)CCOc1cc(-c2cnc(N)c(-c3nnc(-c4ccccc4)o3)n2)ccn1 [IA-165, 5-[2-(2-dimethylaminoethyloxy)-4-pyridyl]-3-(5-phenyl-1,3,4-oxadiazol-2-yl)pyrazin-2-amine]
≤ 10 nM	CC(C)S(=O)(=O)c1ccc(-c2cnc(N)c(-c3nnc(-c4ccccc4)o3)n2)cc1 [IA-116, 5-(4-isopropylsulfonylphenyl)-3-(5-phenyl-1,3,4-oxadiazol-2-yl)pyrazin-2-amine]
100 to 5000 nM	CN(C)C(=O)c1ccc(-c2cnc(N)c(-c3nnc(Nc4cccc(C#N)c4)o3)n2)cc1 [IA-254, 4-[5-amino-6-[5-(3-cyanoanilino)-1,3,4-oxadiazol-2-yl]pyrazin-2-yl]-N,N-dimethyl-benzamide]
10 to 100 nM	Nc1ncc(-c2ccc(C(=O)N3CCC(CO)CC3)cc2)nc1C(=O)Nc1ccccc1 [Compound I-79, 3-amino-6-(4-(4-(hydroxymethyl)piperidine-1-carbonyl)phenyl)-N-phenylpyrazine-2-carboxamide]
100 to 5000 nM	CN(C)C(=O)c1ccc(-c2cnc(N)c(-c3nnc(NCc4ccccc4)o3)n2)cc1 [IA-55, 4-(5-amino-6-(5-(benzylamino)-1,3,4-oxadiazol-2-yl)pyrazin-2-yl)-N,N-dimethylbenzamide]
≤ 10 nM	CC(C)S(=O)(=O)c1ccc(-c2cnc(N)c(-c3nnc(-c4ccccc4)o3)n2)c(C#N)c1 [IA-132, 2-[5-amino-6-(5-phenyl-1,3,4-oxadiazol-2-yl)pyrazin-2-yl]-5-isopropylsulfonyl-benzonitrile]
100 to 5000 nM	C#Cc1ccccc1-c1cnc(N)c(-c2nnc(-c3ccccc3)o2)n1 [IA-194, 5-(2-ethynylphenyl)-3-(5-phenyl-1,3,4-oxadiazol-2-yl)pyrazin-2-amine]
≤ 10 nM	CNCc1ccc(-c2nnc(-c3nc(-c4ccc(S(=O)(=O)C(C)C)cc4)cnc3N)o2)s1 [IA-140, 5-(4-isopropylsulfonylphenyl)-3-[5-[5-(methylaminomethyl)-2-thienyl]-1,3,4-oxadiazol-2-yl]pyrazin-2-amine]
100 to 5000 nM	CS(=O)(=O)c1ccccc1-c1cnc(N)c(-c2nnc(-c3ccccc3)o2)n1 [IA-190, 5-(2-methylsulfonylphenyl)-3-(5-phenyl-1,3,4-oxadiazol-2-yl)pyrazin-2-amine]
100 to 5000 nM	Nc1ncc(-c2cccc(CO)c2)nc1-c1nnc(-c2ccccc2)o1 [IA-202, [3-[5-amino-6-(5-phenyl-1,3,4-oxadiazol-2-yl)pyrazin-2-yl]phenyl]methanol]
10 to 100 nM	Cc1ccc(-c2nnc(-c3nc(-c4ccc(C(=O)N(C)C)cc4)cnc3N)o2)cc1 [IA-263, 4-[5-amino-6-[5-(p-tolyl)-1,3,4-oxadiazol-2-yl]pyrazin-2-yl]-N,N-dimethyl-benzamide]
100 to 5000 nM	CN(C)C(=O)c1ccc(-c2cnc(N)c(-c3nnc(Nc4ccccc4C#N)s3)n2)cc1 [IVA-3, 4-[5-amino-6-[5-(2-cyanoanilino)-1,3,4-thiadiazol-2-yl]pyrazin-2-yl]-N,N-dimethyl-benzamide]
100 to 5000 nM	CN1CCN(C(=O)c2cccc(-c3cnc(N)c(C(=O)Nc4ccccc4)n3)c2)CC1 [Compound I-59, 3-amino-6-(3-(4-methylpiperazine-1-carbonyl)phenyl)-N-phenylpyrazine-2-carboxamide]
10 to 100 nM	Nc1ncc(-c2cccnc2)nc1C(=O)Nc1ccccc1 [Compound I-85, 3-amino-N-phenyl-6-(pyridin-3-yl)pyrazine-2-carboxamide]
100 to 5000 nM	Nc1ncc(-c2ccccc2Br)nc1-c1nnc(-c2ccccc2)o1 [IA-176, 5-(2-bromophenyl)-3-(5-phenyl-1,3,4-oxadiazol-2-yl)pyrazin-2-amine]

Ki	Molecule
10 to 100 nM	COc1ccccc1NC(=O)c1nc(-c2cccc(C(N)=O)c2)cnc1N [Compound I-27, 3-amino-6-(3-carbamoylphenyl)-N-(2-methoxyphenyl)pyrazine-2-carboxamide]
10 to 100 nM	Cc1ccc2nc(-c3nc(-c4ccc(C(=O)N5CCNCC5)cc4)cnc3N)[nH]c2c1 [III-3, (4-(5-amino-6-(6-methyl-1H-benzo[d]imidazol-2-yl)pyrazin-2-yl)phenyl)(piperazin-1-yl)methanone]
≤ 10 nM	CNCc1ccc(-c2nnc(-c3nc(-c4ccc(S(=O)(=O)N5CCC5)cc4)cnc3N)o2)cc1 [IA-297, 5-[4-(azetidin-1-ylsulfonyl)phenyl]-3-[5-[4-(methylaminomethyl)phenyl]-1,3,4-oxadiazol-2-yl]pyrazin-2-amine]
≤ 10 nM	N#Cc1cccn1-c1cnc(N)c(-c2nnc(-c3ccccc3)o2)n1 [IA-264, 1-[5-amino-6-(5-phenyl-1,3,4-oxadiazol-2-yl)pyrazin-2-yl]pyrrole-2-carbonitrile]
10 to 100 nM	CN(C)C(=O)c1ccc(-c2cnc(N)c(-c3nnc(-c4ccc(C(O)CO)cc4)o3)n2)cc1 (centres unmarked) [IA-106, 4-[5-amino-6-[5-[4-(1,2-dihydroxyethyl)phenyl]-1,3,4-oxadiazol-2-yl]pyrazin-2-yl]-N,N-dimethyl-benzamide]
10 to 100 nM	COc1ccccc1Nc1nnc(-c2nc(-c3ccc(C(=O)N(C)C)cc3)cnc2N)o1 [IA-103, 4-[5-amino-6-[5-(2-methoxyanilino)-1,3,4-oxadiazol-2-yl]pyrazin-2-yl]-N,N-dimethyl-benzamide]
≤ 10 nM	CC(C)S(=O)(=O)c1ccc(-c2cnc(N)c(-c3nnc(-c4ccc(CO)cc4)o3)n2)cc1 [IA-238, [4-[5-[3-amino-6-(4-isopropylsulfonylphenyl)pyrazin-2-yl]-1,3,4-oxadiazol-2-yl]phenyl]methanol]
10 to 100 nM	CCc1ncccc1NC(=O)c1nc(-c2ccc(S(C)(=O)=O)cc2)cnc1N [VII-4]
10 to 100 nM	COc1ccc(OC)c(NC(=O)c2nc(-c3cccnc3)cnc2N)c1 [Compound I-107, 3-amino-N-(2,5-dimethoxyphenyl)-6-(pyridin-3-yl)pyrazine-2-carboxamide]
≤ 10 nM	CC(C)S(=O)(=O)c1ccc(-c2cnc(N)c(-c3nnc(-c4ccc(CNCCF)cc4F)o3)n2)cc1 [IA-340, 3-[5-[2-fluoro-4-[(2-fluoroethylamino)methyl]phenyl]-1,3,4-oxadiazol-2-yl]-5-(4-isopropylsulfonylphenyl)pyrazin-2-amine]
100 to 5000 nM	CC(C)S(=O)(=O)c1ccc(-c2cnc(N)c(-c3nnc(C(=O)NC4CCCCC4N)o3)n2)cc1 (centres unmarked) [IA-81, N-(2-aminocyclohexyl)-5-[3-amino-6-(4-isopropylsulfonylphenyl)pyrazin-2-yl]-1,3,4-oxadiazole-2-carboxamide]
10 to 100 nM	Cc1cnc(NC(=O)c2nc(-c3ccc(S(C)(=O)=O)cc3)cnc2N)s1 [VII-8]
100 to 5000 nM	CN(C)C(=O)c1ccc(-c2cnc(N)c(-c3nnc(C4CC4)o3)n2)cc1 [IA-101, 4-[5-amino-6-(5-cyclopropyl-1,3,4-oxadiazol-2-yl)pyrazin-2-yl]-N,N-dimethyl-benzamide]
≤ 10 nM	Cc1ccsc1-c1nnc(-c2nc(-c3ccc(C(=O)N4CCCNCC4)cc3C#N)cnc2N)o1 [IA-181, 2-(5-amino-6-(5-(3-methylthiophen-2-yl)-1,3,4-oxadiazol-2-yl)pyrazin-2-yl)-5-(1,4-diazepane-1-carbonyl)benzonitrile]
≤ 10 nM	Cc1ccccc1-c1nnc(-c2nc(-c3ccc(C(=O)N(C)C)cc3)cnc2N)o1 [IA-71, 4-[5-amino-6-[5-(o-tolyl)-1,3,4-oxadiazol-2-yl]pyrazin-2-yl]-N,N-dimethyl-benzamide]
100 to 5000 nM	Nc1ncc(-c2cccc(C(=O)N3CCC(N4CCCC4)CC3)c2)nc1C(=O)Nc1ccccc1 [Compound I-56, 3-amino-N-phenyl-6-(3-(4-(pyrrolidin-1-yl)piperidine-1-carbonyl)phenyl)pyrazine-2-carboxamide]
≤ 10 nM	CC(C)S(=O)(=O)c1ccc(-c2cnc(N)c(-c3nnc(-c4cccc([C@H](C)N)c4)o3)n2)cc1 [IA-123, 3-[5-[3-[(1S)-1-aminoethyl]phenyl]-1,3,4-oxadiazol-2-yl]-5-(4-isopropylsulfonylphenyl)pyrazin-2-amine]
100 to 5000 nM	Nc1ncc(-c2cccc(O)c2)nc1-c1nc2ccccc2[nH]1 [Compound I-126, 3-(5-amino-6-(1H-benzo[d]imidazol-2-yl)pyrazin-2-yl)phenol]
100 to 5000 nM	Nc1ncc(-c2ccnc(N3CCNCC3)c2)nc1-c1nnc(-c2ccccc2)o1 [IA-271, 3-(5-phenyl-1,3,4-oxadiazol-2-yl)-5-(2-piperazin-1-yl-4-pyridyl)pyrazin-2-amine]
100 to 5000 nM	CC(C)(C)OC(=O)NCC[S+]([O-])c1ccccc1-c1cnc(N)c(-c2nnc(-c3ccccc3)o2)n1 (centres unmarked) [IA-164, tert-butyl N-[2-[2-[5-amino-6-(5-phenyl-1,3,4-oxadiazol-2-yl)pyrazin-2-yl]phenyl]sulfinylethyl]carbamate]

Molecule	Ki
(R)-3-amino-N-phenyl-6-(4-(2-(pyrrolidin-1-ylmethyl)pyrrolidine-1-carbonyl)phenyl)pyrazine-2-carboxamide [Compound I-42]	100 to 5000 nM
